Data taken from PubChem BioAssay AID248 (DTP/NCI, 2004).
Values joined by “and” are separate entries in the source; they are usually repeats but may differ in a detail not shown here. Equal values may be shown once. Inconclusive results and toxic doses are left out. No stated cut-off is given here; in the data, active means T/C of 150% or more; inactive means T/C below 125%.

System: L1210 leukemia ip in BDF1 mice, survival T/C
Assay: NCI In Vivo Anticancer Drug Screen. Data for tumor model L1210 Leukemia (intraperitoneal) in B6D2F1 (BDF1) mice
Conditions: endpoint: mean survival time, higher = longer survival
Outline: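 Value reflects the ratio of survival in compound-treated mice to survival in vehicle-treated controls, with both groups carrying the same transplanted tumor.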

[1] = dose: 100.0 mg/kg/injection, schedule: Q01DX009 (ip), vehicle: Klucel (hydroxypropylcellulose) (HPC)
[2] = dose: 200.0 mg/kg/injection, schedule: Q01DX009 (ip), vehicle: Klucel (hydroxypropylcellulose) (HPC)
[3] = dose: 100.0 mg/kg/injection, schedule: Q01DX001 (ip), vehicle: saline
[4] = dose: 100.0 mg/kg/injection, schedule: Q04DX003 (ip), vehicle: saline
[5] = dose: 200.0 mg/kg/injection, schedule: Q01DX001 (ip), vehicle: saline
[6] = dose: 200.0 mg/kg/injection, schedule: Q04DX003 (ip), vehicle: saline
[7] = dose: 100.0 mg/kg/injection, schedule: Q01DX009 (ip), vehicle: saline with Tween-80
[8] = dose: 100.0 mg/kg/injection, schedule: Q04DX003 (ip), vehicle: saline with Tween-80
[9] = dose: 200.0 mg/kg/injection, schedule: Q01DX009 (ip), vehicle: saline with Tween-80
[10] = dose: 400.0 mg/kg/injection, schedule: Q01DX009 (ip), vehicle: saline with Tween-80
[11] = dose: 400.0 mg/kg/injection, schedule: Q01DX001 (ip), vehicle: saline
[12] = dose: 100.0 mg/kg/injection, schedule: Q04DX003 (ip), vehicle: Klucel (hydroxypropylcellulose) (HPC)
[13] = dose: 200.0 mg/kg/injection, schedule: Q04DX003 (ip), vehicle: Klucel (hydroxypropylcellulose) (HPC)
[14] = dose: 100.0 mg/kg/injection, schedule: Q01DX001 (ip), vehicle: carboxymethylcellulose (CMC)
[15] = dose: 200.0 mg/kg/injection, schedule: Q01DX001 (ip), vehicle: carboxymethylcellulose (CMC)
[16] = dose: 400.0 mg/kg/injection, schedule: Q01DX001 (ip), vehicle: carboxymethylcellulose (CMC)
[17] = dose: 400.0 mg/kg/injection, schedule: Q04DX003 (ip), vehicle: Klucel (hydroxypropylcellulose) (HPC)
[18] = dose: 400.0 mg/kg/injection, schedule: Q04DX003 (ip), vehicle: saline

Measured: T/C

O=C1C=CC(=C(c2ccccc2)c2ccccc2)C=C1
inactive: dose: 12.5 mg/kg/injection, schedule: Q01DX009 (ip), vehicle: Klucel (hydroxypropylcellulose) (HPC) 106 % of control | dose: 25.0 mg/kg/injection, schedule: Q01DX009 (ip), vehicle: Klucel (hydroxypropylcellulose) (HPC) 95 % of control | dose: 50.0 mg/kg/injection, schedule: Q01DX009 (ip), vehicle: Klucel (hydroxypropylcellulose) (HPC) 107 % of control | dose: 50.0 mg/kg/injection, schedule: Q01DX009 (ip), vehicle: saline 87 % of control | dose: 75.0 mg/kg/injection, schedule: Q04DX003 (ip), vehicle: saline 90 % of control | dose: 150.0 mg/kg/injection, schedule: Q04DX003 (ip), vehicle: saline 102 % of control

CCCCCCCCCC(=O)CCCCC
inactive: dose: 100.0 mg/kg/injection, schedule: Q01DX009 (ip), vehicle: other 100 % of control | dose: 200.0 mg/kg/injection, schedule: Q01DX009 (ip), vehicle: other 98 % of control | dose: 400.0 mg/kg/injection, schedule: Q01DX009 (ip), vehicle: other 93 % of control

Nc1cccc(OCCCCCOc2cccc(N)c2)c1
inactive: [1] 93 % of control | [2] 96 % of control

COc1ccc2c(c1)CCCC2CC(=O)c1ccccc1 (configuration not stated)
inactive: dose: 50.0 mg/kg/injection, schedule: Q01DX009 (ip), vehicle: acetone 98 % of control | dose: 100.0 mg/kg/injection, schedule: Q01DX009 (ip), vehicle: acetone 95 % of control | dose: 100.0 mg/kg/injection, schedule: Q04DX003 (ip), vehicle: acetone 86 % of control | dose: 198.0 mg/kg/injection, schedule: Q01DX009 (ip), vehicle: other 107 % of control | dose: 200.0 mg/kg/injection, schedule: Q01DX009 (ip), vehicle: acetone 98 % of control | dose: 200.0 mg/kg/injection, schedule: Q04DX003 (ip), vehicle: acetone 87 % of control | dose: 300.0 mg/kg/injection, schedule: Q01DX009 (ip), vehicle: other 104 % of control

O=[N+]([O-])c1ccccc1N=Cc1ccccc1O.[Co]
inactive: dose: 100.0 mg/kg/injection, schedule: Q01DX001 (ip), vehicle: other 98 % of control | dose: 200.0 mg/kg/injection, schedule: Q01DX001 (ip), vehicle: other 104 % of control

CN(N)C(=S)c1ccc(Cl)cc1
inactive: dose: 50.0 mg/kg/injection, schedule: Q04DX003 (ip), vehicle: saline 102 % of control | [3] 95 % of control | [4] 100 % of control | [5] 93 % of control | [6] 96 % of control

O=C1OC(c2cccc([N+](=O)[O-])c2)=N/C1=C\c1ccc(O)cc1
inactive: dose: 100.0 mg/kg/injection, schedule: Q04DX002 (ip), vehicle: saline 101 % of control | dose: 200.0 mg/kg/injection, schedule: Q04DX002 (ip), vehicle: saline 101 % of control | dose: 400.0 mg/kg/injection, schedule: Q04DX002 (ip), vehicle: saline 101 % of control

Cn1nnnc1N/N=C(\Br)c1ccccc1
inactive: [7] 96 % of control | [8] 104 % of control | [9] 93 % of control | dose: 200.0 mg/kg/injection, schedule: Q04DX003 (ip), vehicle: saline with Tween-80 104 % of control | [10] 95 % of control | dose: 400.0 mg/kg/injection, schedule: Q04DX003 (ip), vehicle: saline with Tween-80 100 % of control

CC(CNC1CCCCC1)OC(=O)c1ccc(N)cc1 (configuration not stated)
inactive: dose: 75.0 mg/kg/injection, schedule: Q01DX001 (ip), vehicle: saline 100 % of control

O=C(O)C(F)(F)C(F)(Cl)C(F)(F)C(F)(Cl)C(F)(F)C(F)(Cl)C(F)(F)Cl (configuration not stated)
inactive: [3] 96 % of control and 90 % of control | [5] 110 % of control and 93 % of control | [11] 107 % of control

Cc1cccc(C)c1N(COCC(C)C)C(=O)CCl
inactive: [7] 100 % of control | [9] 100 % of control

Cc1ccc(C(=O)C=Nc2ccc(C(=O)O)cc2)cc1
inactive: [12] 97 % of control | [13] 97 % of control

Cc1ccc(NC(=O)Nc2ccccc2C(F)(F)F)cc1NC(=O)Nc1ccccc1C(F)(F)F
inactive: [7] 92 % of control | [9] 90 % of control | [10] 92 % of control

COc1ccc(/C=[N+](\[O-])c2ccccc2)cc1
inactive: dose: 50.0 mg/kg/injection, schedule: Q01DX001 (ip), vehicle: saline 110 % of control | [3] 112 % of control | [5] 112 % of control | [11] 118 % of control

CC(=O)Nc1c2ccccc2nc2c1c(C)c(C)c1ccccc12
inactive: dose: 50.0 mg/kg/injection, schedule: Q01DX001 (ip), vehicle: Klucel (hydroxypropylcellulose) (HPC) 87 % of control | dose: 100.0 mg/kg/injection, schedule: Q01DX001 (ip), vehicle: Klucel (hydroxypropylcellulose) (HPC) 89 % of control | dose: 200.0 mg/kg/injection, schedule: Q01DX001 (ip), vehicle: Klucel (hydroxypropylcellulose) (HPC) 94 % of control | dose: 400.0 mg/kg/injection, schedule: Q01DX001 (ip), vehicle: Klucel (hydroxypropylcellulose) (HPC) 91 % of control

O=C(Nc1c(Br)cc2c(c1Br)Cc1cc(Br)ccc1-2)C(Cl)Cl
inactive: [14] 98 % of control | [15] 91 % of control | [16] 98 % of control

O=[N+]([O-])c1c(Cl)c(Cl)cc(Cl)c1Cl
inactive: [1] 102 % of control and 92 % of control | [12] 93 % of control and 97 % of control | [2] 106 % of control and 91 % of control | [13] 101 % of control | dose: 400.0 mg/kg/injection, schedule: Q01DX009 (ip), vehicle: Klucel (hydroxypropylcellulose) (HPC) 95 % of control and 92 % of control | [17] 95 % of control and 100 % of control

O=Cc1ccc(O)cn1
inactive: [4] 92 % of control | [6] 87 % of control | [18] 92 % of control

CCOC(=O)C1=CC(=O)C(C(=O)OCC)=CC1=O
inactive: [14] 98 % of control | [15] 98 % of control | [16] 104 % of control

CCCCCCC1C/C(=C/N(C)C)C(=O)O1 (configuration not stated)
inactive: dose: 100.0 mg/kg/injection, schedule: Q04DX002 (ip), vehicle: Klucel (hydroxypropylcellulose) (HPC) 90 % of control | dose: 200.0 mg/kg/injection, schedule: Q04DX002 (ip), vehicle: Klucel (hydroxypropylcellulose) (HPC) 90 % of control | dose: 400.0 mg/kg/injection, schedule: Q04DX002 (ip), vehicle: Klucel (hydroxypropylcellulose) (HPC) 93 % of control

O=NN1CCN(N=O)CC1
inactive: [14] 94 % of control | [8] 101 % of control

O=C(O)c1occ(Cl)c1Cl
inactive: dose: 25.0 mg/kg/injection, schedule: Q01DX009 (ip), vehicle: water 101 % of control | dose: 50.0 mg/kg/injection, schedule: Q01DX009 (ip), vehicle: water 105 % of control | [3] 103 % of control | [1] 97 % of control | dose: 100.0 mg/kg/injection, schedule: Q01DX009 (ip), vehicle: water 91 % of control | dose: 100.0 mg/kg/injection, schedule: Q04DX003 (ip), vehicle: water 102 % of control | [5] 101 % of control | [2] 95 % of control | dose: 200.0 mg/kg/injection, schedule: Q04DX003 (ip), vehicle: water 90 % of control

CC(C)(C)CC(N)=O
inactive: [3] 106 % of control | dose: 100.0 mg/kg/injection, schedule: Q01DX009 (ip), vehicle: saline 101 % of control | [12] 117 % of control | [4] 103 % of control | dose: 133.0 mg/kg/injection, schedule: Q01DX009 (ip), vehicle: Klucel (hydroxypropylcellulose) (HPC) 111 % of control | dose: 133.0 mg/kg/injection, schedule: Q04DX003 (ip), vehicle: Klucel (hydroxypropylcellulose) (HPC) 123 % of control | [5] 97 % of control | [2] 111 % of control | dose: 200.0 mg/kg/injection, schedule: Q01DX009 (ip), vehicle: saline 89 % of control | [13] 124 % of control | [6] 97 % of control | dose: 300.0 mg/kg/injection, schedule: Q01DX009 (ip), vehicle: Klucel (hydroxypropylcellulose) (HPC) 105 % of control | dose: 300.0 mg/kg/injection, schedule: Q04DX003 (ip), vehicle: Klucel (hydroxypropylcellulose) (HPC) 98 % of control | [11] 103 % of control | dose: 400.0 mg/kg/injection, schedule: Q01DX009 (ip), vehicle: saline 97 % of control | [17] 109 % of control | [18] 103 % of control

NCCB(O)O
inactive: [4] 95 % of control | [6] 93 % of control | [18] 98 % of control
